Results on one molecule are retold here after patent publication US20210047324A1 (Aptinyx Inc., priority 2018, published 2021).

Data set [1] concerns the target T1, NMDAR2D (Homo sapiens, UniProt O15399).
T1 construct: expressed in transfected cells; host or cells: HEK cells (membrane extract)
Description: NMDAR agonist assay, [3H]MK-801 binding, NMDAR2D expressing HEK cell membranes. The data set is classed as biochemical. The following applies: 50 μM glutamate; relative to 1 mM glycine. As to the method: (§1) Assays were conducted as described by Moskal et al., “GLYX-13: a monoclonal antibody-derived peptide that acts as an N-methyl-D-aspartate receptor modulator,” Neuropharmacology, 49, 1077-87, 2005. These studies were designed to determine if the test compounds act to facilitate NMDAR activation in NMDAR2A, NMDAR2B, NMDAR2C or NMDAR2D expressing HEK cell membranes as measured by increases in [^3H]MK-801 binding.
(§2) In the assay, 300 μg of NMDAR expressing HEK cell membrane extract protein was preincubated for 15 minutes at […] in the presence of saturating concentrations of glutamate (50 μM) and varying concentrations of test compound (1×10^−15M-1×10^−7M), or 1 mM glycine. Following the addition of 0.3 μCi of [3H]MK-801 (22.5 Ci/mmol), reactions were again incubated for 15 minutes at 25° C. (nonequilibrium conditions). Bound and free [3H]MK-801 were separated via rapid filtration using a Brandel apparatus.
(§3) In analyzing the data, the DPM (disintegrations per minute) of [3H]MK-801 remaining on the filter were measured for each concentration of test compound or for 1 mM glycine. The DPM values for each concentration of a ligand (N=2) were averaged. The baseline value was determined from the best fit curve of the DPM values modeled using the GraphPad program and the log(agonist) vs. response (three parameters) algorithm was then subtracted from all points in the dataset. The % maximal [^3H]MK-801 binding was then calculated relative to that of 1 mM glycine: all baseline subtracted DPM values were divided by the average value for 1 mM glycine. The EC50 and % maximal activity were then obtained from the best fit curve of the % maximal [3H]MK-801 binding data modelled using the GraphPad program and the log(agonist) vs. response (three parameters) algorithm.
(§4) The tables below summarize the results for the wild type […] NMDAR2A, NMDAR2B, NMDAR2C, and NMDAR2D, and whether the compound is not an agonist (−), is an agonist (+), or is a strong agonist (++), where column A is based on the % maximal [3H]MK-801 binding relative to 1 mM glycine (−=0; <100%=+; and >100%=++); and column B is based on log EC50 values (0=−; ≥1×10^−9 M (e.g., −8)=+; and <1×10^−9 M (e.g., −10)=++).

Data set [2] addresses T2, NMDAR2D (Homo sapiens, UniProt O15399+Q05586).
T2 construct: expressed in transfected cells; host or cells: HEK cells (membrane extract)
The data set is described as above. The data set is classed as biochemical. The following applies: 50 μM glutamate; read-out: NMDAR2D B: log EC50 (converted). As to the method:
as §1, §2, §3, §4

A further data set relates to Sprague Dawley rats. Description: Porsolt forced swim test. Format: in vivo.
Data set [3] can be described thus: Microsomal stability (Rat). Format: in vitro ADME. To be noted: after 60 minutes. As to the method: Microsomal stability of disclosed compounds was investigated. The following table indicates the percent of compound remaining after 60 minutes.

T2 sequence (O15399 28-1336, species assumed, other chains not shown): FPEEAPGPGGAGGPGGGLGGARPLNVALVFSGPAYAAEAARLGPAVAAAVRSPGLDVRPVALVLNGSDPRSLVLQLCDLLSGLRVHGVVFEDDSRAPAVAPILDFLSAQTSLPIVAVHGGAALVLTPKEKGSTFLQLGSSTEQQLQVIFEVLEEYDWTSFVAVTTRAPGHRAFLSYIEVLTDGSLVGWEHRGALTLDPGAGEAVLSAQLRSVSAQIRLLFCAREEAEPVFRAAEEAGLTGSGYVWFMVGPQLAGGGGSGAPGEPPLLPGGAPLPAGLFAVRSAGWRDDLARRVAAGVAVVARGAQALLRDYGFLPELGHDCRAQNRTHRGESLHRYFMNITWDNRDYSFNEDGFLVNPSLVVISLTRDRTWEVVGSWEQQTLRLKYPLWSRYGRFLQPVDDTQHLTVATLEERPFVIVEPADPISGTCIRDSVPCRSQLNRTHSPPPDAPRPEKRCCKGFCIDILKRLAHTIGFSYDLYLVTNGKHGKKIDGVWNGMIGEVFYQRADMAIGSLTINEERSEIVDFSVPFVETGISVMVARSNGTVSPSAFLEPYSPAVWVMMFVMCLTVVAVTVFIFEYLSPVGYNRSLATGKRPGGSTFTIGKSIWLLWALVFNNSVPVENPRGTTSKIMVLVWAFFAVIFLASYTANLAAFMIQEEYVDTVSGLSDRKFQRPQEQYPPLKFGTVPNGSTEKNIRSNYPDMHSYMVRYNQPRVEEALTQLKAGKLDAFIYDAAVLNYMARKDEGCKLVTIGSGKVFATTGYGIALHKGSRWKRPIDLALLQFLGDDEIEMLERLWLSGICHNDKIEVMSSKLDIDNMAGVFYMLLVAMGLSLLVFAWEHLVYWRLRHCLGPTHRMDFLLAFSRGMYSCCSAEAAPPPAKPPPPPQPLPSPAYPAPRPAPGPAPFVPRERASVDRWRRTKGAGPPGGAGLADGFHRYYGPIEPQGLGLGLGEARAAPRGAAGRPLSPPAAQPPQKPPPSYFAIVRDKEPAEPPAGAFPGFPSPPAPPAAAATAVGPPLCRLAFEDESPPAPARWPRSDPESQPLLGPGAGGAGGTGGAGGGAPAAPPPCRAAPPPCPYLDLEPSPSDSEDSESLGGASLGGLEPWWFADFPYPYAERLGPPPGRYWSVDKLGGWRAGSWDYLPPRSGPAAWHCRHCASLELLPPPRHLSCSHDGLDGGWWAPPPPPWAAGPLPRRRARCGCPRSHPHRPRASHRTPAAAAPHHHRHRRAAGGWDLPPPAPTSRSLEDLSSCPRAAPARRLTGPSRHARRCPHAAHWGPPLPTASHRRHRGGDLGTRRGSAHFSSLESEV
T1 sequence (O15399 28-1336, species assumed, other chains not shown): as above

Consider `O=C1NCC=CC[C@]12CCCN2` [GA, (R)-1,7-diazaspiro[4.6]undec-9-en-6-one], for which the “NMDAR2D A: % maximal [3H]MK-801 binding relative to 1 mM glycine” value at NMDAR2D [1] is “+ (<100%=+)”. For the same molecule, the EC50 (usually the concentration giving half of the maximal effect) at NMDAR2D [2] was less than 1 nM. Also, the “% reduction in float time” value came to 55% with Sprague Dawley rats (1 wk post-dose, 0.00001 mg/kg); 71% in the data set with Sprague Dawley rats (1 wk post-dose, 0.001 mg/kg); 72% in the data set on Sprague Dawley rats (1 wk post-dose, 0.1 mg/kg); 44% in the data set with Sprague Dawley rats (1 wk post-dose, 10.0 mg/kg); 29% in the data set on Sprague Dawley rats (1 h post-dose, 0.00001 mg/kg); 58% with Sprague Dawley rats (1 h post-dose, 0.001 mg/kg). For the same molecule, the “% reduction in float time” value with Sprague Dawley rats (1 h post-dose, 0.1 mg/kg) was 67%; in the data set with Sprague Dawley rats (1 h post-dose, 10.0 mg/kg), 50%; in the data set with Sprague Dawley rats (24 h post-dose, 0.1 mg/kg), 64%. For the same molecule, the Significance vs. vehicle entry in the data set with Sprague Dawley rats (1 wk post-dose, 0.00001 mg/kg) was “Yes”; with Sprague Dawley rats (1 wk post-dose, 0.001 mg/kg), “Yes”; in the data set on Sprague Dawley rats (1 wk post-dose, 0.1 mg/kg) it was “Yes”; in the data set with Sprague Dawley rats (1 wk post-dose, 10.0 mg/kg), “Yes”; in the data set with Sprague Dawley rats (1 h post-dose, 0.00001 mg/kg), “No”; in the data set with Sprague Dawley rats (1 h post-dose, 0.001 mg/kg), “Yes”. The Significance vs. vehicle entry with Sprague Dawley rats (1 h post-dose, 0.1 mg/kg) is on record as “Yes”; with Sprague Dawley rats (1 h post-dose, 10.0 mg/kg), “No”; in the data set with Sprague Dawley rats (24 h post-dose, 0.1 mg/kg) it was “Yes”. The “Microsomal (Rat): percent of compound remaining” value in data set [3] came out at 90%.
